# “Also recorded” adds a separate entry of the source.
# Experiments:
# [1] = test system: human normal cells (GM05757); experiment: In vitro radiation-induced toxicity in human normal cells, MTT assay 12 days after X-ray; format: cell-based; details: GM05757, 12-hr treatment, then 0-10 Gy 225 keV X-ray, MTT at 12 days
# Source text: (§1) Dibromo-diamino-benzene (Dibromo-phenylenediamine, Compound B) was obtained from TCI-America. Diiodo-diaminobenzene (Compound C) were synthesized, purified and crystallized in our laboratory, and the structures and purity were examined by NMR and mass spectrometry. MEM and fetal bovine serum (FBS), penicillin G and streptomycin were obtained from Hyclone Laboratories (UT, USA). Stock solution of cisplatin was freshly prepared in ultrapure water or saline, and stock solutions of Compounds A, B, C, D were prepared in pure ethanol, where the final concentration of ethanol was ≦1% when treated to cells.
# (§2) A human skin diploid fibroblast (GM05757 cell line) was obtained from the Coriell Cell Repository directly. Fetal bovine serum (FBS) was obtained from Hyclone Laboratories (UT, USA). The GM05757 normal cells were cultivated with MEM (Hyclone) supplemented with 10% FBS, 100 units/mL penicillin G and 100 μg/mL streptomycin (Hyclone). The cells were maintained at 37° C. in a humidified atmosphere containing 5% CO2.
# The radiosensitizing effects of RSCs on cell viability were determined by the 3-[4,5-dimethylthiazol-2-yl]-2,5-diphenyl tetrazoliumbromide (MTT) assay. Cells were cultured in 96-well plates (5×10^3 cells/well) for 24 h. The culture medium was replaced by fresh culture medium and incubated for 12 h with varying drug concentrations. The cells were then irradiated by 225 kV X-ray (PRECISION X-RAD IR 225) at a dose rate of 2 Gy/min with various X-ray doses. After irradiation, the cells were incubated for 12 days. The MTT assay of cell viability was then conducted. Briefly, 100 μl new medium without phenol red containing 1.2 mM MTT (sigma) (i.e., adding 10 μl 12 mM MTT stock solution in PBS) were added to each well and incubated for 4 h. […] The surviving fraction was determined by measuring the absorbance at 540 nm (570 nm for SDS solubilization) using a Multiskan Spectrum UV/Vis microplate reader (Thermo Scientific), which is directly proportional to the number of viable cells.
# [2] = test system: cisplatin-resistant human ovarian cancer (HTB-161) cells; experiment: In vitro radiosensitizing effect, MTT assay 6 days after X-ray, HTB-161; format: cell-based; details: MTT at 6 days
# Source text: as §1, with “TCI—America.” for “TCI-America.”, “cells. […]” for “cells.”
# The radiosensitizing effects of RSCs on cell viability were determined by the 3-[4,5-dimethylthiazol-2-yl]-2,5-diphenyl tetrazoliumbromide (MTT) assay. […] The surviving fraction was determined by measuring the absorbance at 540 nm (570 nm for SDS solubilization) using a Multiskan Spectrum UV/Vis microplate reader (Thermo Scientific), which is directly proportional to the number of viable cells.
# [3] = test system: human cervical cancer (HeLa) cells; experiment: In vitro radiosensitizing effect, MTT assay 6 days after X-ray, HeLa; format: cell-based; details: 12-hr treatment, MTT at 6 days
# Source text: as §1, with “TCI—America.” for “TCI-America.”
# (§3) A human skin diploid fibroblast (GM05757 cell line) was obtained from the Coriell Cell Repository directly, while the human cervical cancer cell line (HeLa, ATCC#: CCL-2; or ME-180), human ovarian cancer cell line (NIH:OVCAR-3, ATCC#: HTB-161) and human lung cancer cell line (A549, ATCC#: CCL-185™), together with RPMI 1640, F-12K, McCoy's 5 A and L-15 culture media, were obtained from the American Type Culture Collection (ATCC) directly. Fetal bovine serum (FBS) was obtained from Hyclone Laboratories (UT, USA). The GM05757 normal cells and HeLa cells were cultivated with MEM (Hyclone) supplemented with 10% FBS, 100 units/mL penicillin G and 100 μg/mL streptomycin (Hyclone). The complete growth media for ME-180, NIH:OVCAR-3, A549 and MDA-MB-231 cells were the ATCC-formulated McCoy's 5 A Medium supplemented with 10% FBS, RPMI 1640 medium with 20%, F-12K medium with 10% FBS, and L-15 Medium (Leibovitz) with 10% FBS, respectively. The cells were maintained at 37° C. in a humidified atmosphere containing 5% CO2.
# The radiosensitizing effects of RSCs on cell viability were determined by the 3-[4,5-dimethylthiazol-2-yl]-2,5-diphenyl tetrazoliumbromide (MTT) assay. Cells were cultured in 96-well plates (5×10^3 cells/well) for 24 h. […] The surviving fraction was determined by measuring the absorbance at 540 nm (570 nm for SDS solubilization) using a Multiskan Spectrum UV/Vis microplate reader (Thermo Scientific), which is directly proportional to the number of viable cells.
# [4] = test system: human normal cells (GM05757); experiment: In vitro toxicity in human normal cells, 72-hr treatment, MTT assay; format: cell-based; details: GM05757, 72-hr treatment, without ionizing radiation; for toxicity toward human normal cells: 0-50 μM cisplatin, 0-200 μM compounds
# Source text: as §1, §2
# The radiosensitizing effects of RSCs on cell viability were determined by the 3-[4,5-dimethylthiazol-2-yl]-2,5-diphenyl tetrazoliumbromide (MTT) assay. Cells were cultured in 96-well plates (5×10^3 cells/well) for 24 h. The culture medium was replaced by fresh culture medium and incubated for 72 h with varying drug concentrations. The MTT assay of cell viability was then conducted. Briefly, 100 μl new medium without phenol red containing 1.2 mM MTT (sigma) (i.e., adding 10 μl 12 mM MTT stock solution in PBS) were added to each well and incubated for 4 h. The medium was then removed, and the formazan crystals solubilized by 100 μL/well DMSO (or alternatively by 100 μl/well SDS and incubated for another 4 h). The surviving fraction was determined by measuring the absorbance at 540 nm (570 nm for SDS solubilization) using a Multiskan Spectrum UV/Vis microplate reader (Thermo Scientific), which is directly proportional to the number of viable cells.
# [5] = test system: various human cancer cells; experiment: In vitro radiosensitizing effects in various human cancer cells (FIG. 14-21); format: cell-based; details: 12 hr treatment, then various doses of 225 keV X-ray
# Source text: as §1, with “TCI—America.” for “TCI-America.”
# as §3
# (§4) The radiosensitizing effects of RSCs on cell viability were determined by the 3-[4,5-dimethylthiazol-2-yl]-2,5-diphenyl tetrazoliumbromide (MTT) assay. Cells were cultured in 96-well plates (5×10^3 cells/well) for 24 h. The culture medium was replaced by fresh culture medium and incubated for 12 h with varying drug concentrations. The cells were then irradiated by 225 kV X-ray (PRECISION X-RAD IR 225) at a dose rate of 2 Gy/min with various X-ray doses. After irradiation, the cells were incubated for 6 days. The MTT assay of cell viability was then conducted. Briefly, 100 μl new medium without phenol red containing 1.2 mM MTT (sigma) (i.e., adding 10 μl 12 mM MTT stock solution in PBS) were added to each well and incubated for 4 h. The medium was then removed, and the formazan crystals solubilized by 100 μL/well DMSO (or alternatively by 100 μl/well SDS and incubated for another 4 h). The surviving fraction was determined by measuring the absorbance at 540 nm (570 nm for SDS solubilization) using a Multiskan Spectrum UV/Vis microplate reader (Thermo Scientific), which is directly proportional to the number of viable cells.
# [6] = [Lu, 2010]; cited from earlier work
# [7] = test system: human cervical cancer (ME-180) cells; experiment: In vitro radiosensitizing effect, MTT assay 6 days after X-ray, ME-180; format: cell-based
# Source text: as §1, with “TCI—America.” for “TCI-America.”
# as §3, §4
# mice = details: literature; cited from earlier work
Compound,radiation toxicity in human normal cells [1],enhancement of radiosensitivity of cancer cells to X-ray ([3]; 0-10 Gy 225 keV X-ray),toxicity toward human normal cells [4],killing of cancer cells in combination with radiation [5],also measured
"Nc1cc(Cl)c(Cl)cc1N [Compound A, 4,5-dichloro-1,2-phenylenediamine]",no radiation toxicity,significant enhancement in the radiosensitivity,essentially no toxicity; also recorded: little toxicity up to 200 μM,enhanced the killing of cancer cells in a radiation dose dependent manner and in synergy with radiation; also recorded: enhances the effectiveness of ionizing radiation to kill tumor cells,"enhancement of radiosensitivity of cisplatin-resistant cancer cells to X-ray ([2]; HTB-161, 12-hr treatment, 0-10 Gy 225 keV X-ray): significant enhancement in the radiosensitivity"
"Nc1cc(I)c(I)cc1N [Compound C, 4,5-diiodo-1,2-phenylenediamine]",–,–,essentially no toxicity; also recorded: little toxicity up to 200 μM,enhanced the killing of cancer cells in a radiation dose dependent manner and in synergy with radiation; also recorded: enhances the effectiveness of ionizing radiation to kill tumor cells,enhancement of radiosensitivity of cancer cells to X-ray ([3]; 0 and 20 Gy 225 keV X-ray): significant enhancement in the radiosensitivity
"O=c1[nH]c(=O)n([C@H]2C[C@H](O)[C@@H](CO)O2)cc1I [IdU, iododeoxyuridine]",–,–,–,–,DET reaction with epre− among halopyrimidines [6]: strongest DET reaction among the halopyrimidines
"bromo-(1,2-)diamino-benzene [Compound D]",–,significant enhancement in the radiosensitivity,–,enhanced the killing of cancer cells in a radiation dose dependent manner and in synergy with radiation; also recorded: enhances the effectiveness of ionizing radiation to kill tumor cells,"enhancement of radiosensitivity of cancer cells to X-ray ([7]; ME-180, 12-hr treatment, 0-10 Gy 225 keV X-ray, MTT at 6 days): significant enhancement in the radiosensitivity; killing of cancer cells ([7]; ME-180, 50 Gy x-ray with about 100 μM compound, about 20% survived without any RSC): early all cancer cells were killed; enhancement of radiosensitivity of cisplatin-resistant cancer cells to X-ray ([2]; HTB-161, 0-7.5 Gy 225 keV X-ray): significant enhancement in the radiosensitivity"
"cis-Pt(NH3)2Cl2 [cisplatin, reference compound]",essentially no radiation toxicity,–,highly toxic; also recorded: severe toxicity even at low concentrations of ≦30 μM,–,IC50 ([4]; read-out: IC50 (cell survival rate 50% with respect to untreated cells)): ~10 µM; LD50 (mice): 13.5 mg/kg

# From patent publication US9655965B2, “Radiosensitizer compounds for use in combination with radiation” (priority 2013, dated 2017)
